The text below walks through data of patent US8618178B2, “Method and substances for treating T-cell mediated autoimmune diseases” (Eberhard-Karls-Universitaet Tuebingen Universitaetsklinikum, priority 2006, dated 2013).

Test [1] has as its system DC. Nature of the test: Colorimetric determination of cellular GSH content of DC. The format is cell-based, mouse. Conditions: L-BSO 0.5 mM, DMF 70 μM, MMF 200 μM. The protocol:
Cellular GSH and GSSG were determined in micro-titer plate assays using colorimetric methods. The cellular GHS content is determined as a percentage of the GSH levels in freshly prepared controls or as pmol 10^−6 cells. GSSG was not detectable.
As antigen presenting cells (APC), T cell depleted spleen cells from syngenic mice were used. Dendritic cells (DC) which were obtained from bone marrow (BMDC) and cultured with GM-CSF were used for the relevant experiments on day 7 of culturing. For the experiment, in each case an equal number of APC were cultured either with the medium alone, with L-BSO (C8H18N2O3S, 0.5 mM), dimethyl sulfoxide DMSO(C2H6OS), dimethyl fumarate DMF (C6H8O4, dissolved in DMSO, 70 μM), or calcium monomethyl fumarate (MMF; CaC10H10O8, 200 μM). All substances except for MMF (Fumapharm) were purchased from Sigma-Aldrich. At the respective stated times (see below) the cells were either analyzed directly for their GSH content, used for T cell stimulation or stimulated for […] with Escherichia coli lipopolysaccharides 055.B5 (Sigma-Aldrich) or CpG-DNA 1668 (MWG Biotech) and IL-4 (Stratmann). […]
For the testing of the potential of pharmaceutical substances to lower the glutathione content of cells, the following procedure was carried out: cells (antigen-presenting cells or dendritic cells) are incubated with different concentrations of the given pharmaceutical substance to be tested. Then, after an incubation time of 1 hr, 2 hrs, 24 hrs or 48 hrs, the glutathione content of the cells is determined in comparison to control cells. […]
The samples and the GSH standard were diluted in a microtiter plate and the assay reaction started by addition of a reaction mix which contains glutathione reductase. […] The rise in the extinction is measured at 405 nm at 30 sec intervals over 10 mins with a microtiter plate reader. The glutathione content was determined using a calibration curve. […] The protein content was determined by the method of Lowry (see for example, Dringen, et al., “Supply by Astrocytes of CysGly as Precursor for neuronal Glutathione”, J. Neurosci 19:562-569). […]

Test [2] relates to experimental autoimmune encephalomyelitis (EAE). Nature of the test: EAE after transfer of in vitro generated PLP-specific T cells into naive SJL mice. The format is in vivo. Conditions: 10^7 lymphocytes injected into naive SJL mice. The protocol: Spleen and lymph node CD4^+ T cells were stimulated with PLP (proteolipid protein) peptide 139-151 (10 μg/ml) and stimulated for four days with irradiated SJL-APC in the presence or absence of L-BSO (0.5 mM, Sigma), expanded for three to four days and then restimulated for cytokine production (proteolipid protein is the commonest myelin protein in the central nervous system and plays an important part as an autoantigen in the onset of multiple sclerosis). Next, 10^7 sham (control) or L-BSO treated T cells were injected intraperitoneally into naive SJL mice and the EAE developing as a result was observed. […] Half of the group was fed daily for 14 days with DMF 0.3 mg/ml (Fluka) or L-BSO 0.15 mg/ml in the drinking water. For the cytokine analysis of PLP-specific T cells, the draining lymph nodes of the SJL mice were removed 6 days after the immunization and CD4^+ T cells antigen-specifically analyzed (ELISPOT). For this, ELISPOT plates (Millipore Corporation) were coated with anti-IFN-γ or anti-IL-4 antibodies overnight at 4° C., blocked after 12 hrs with PBS/10% FCS and, after the solution had been poured off, the isolated T lymphocytes were incubated with APC and medium alone or in the presence of PLP peptide. After the incubation time, the cells were poured off, and the plates washed with PBS/Tween and incubated with biotin-conjugated secondary antibodies. After further washing procedures and incubation with streptavidin-alkaline phosphatase (Boehringer), the plates were incubated with developer solution. After washing with H2O, the number of spots was determined in the ELISPOT reader (Biosys).
Since the induction of the TH2 phenotype could adversely affect the ability of the CD4^+ T cells to induce autoimmune diseases in immunocompetent mice, it was concluded that GSH^lowIL12^−DC2 could weaken the ability of autoreactive CD4^+ T cells to induce the disease. For the next experiments, lymphocytes from SJL mice were stimulated twice with PLP peptide, either in the presence or absence of L-BSO, DMF or MMF. […]

The nature of test [3]: GSH levels in organs of immunized mice after feeding. The format is in vivo. To be noted: fed in the drinking water; data not shown. The source says: In order further to study whether GSH deprivation can also influence the differentiation and pathogenicity of autoreactive T cells in vivo, mice were fed with DMF or L-BSO in the drinking water, and the control group only with drinking water. Active EAE induction was effected on day 10 with PLP peptide in complete Freund's adjuvant (CFA) and pertussis toxin. The mice were examined daily regarding the course of the artificially triggered disease. Through the administration of L-BSO or DMF, the GSH levels in lymphoid organs and in the brain of immunized mice could be lowered (not shown). […] 6 days after immunization, the draining lymph nodes of the mice were analyzed. For this, the CD4^+ T cells were isolated and the cytokine production of PLP-specific T cells measured using ELISPOT after in vitro stimulation. […] The pharmaceutical substances to be tested can also be analyzed ex vivo for their potential to deplete GSH. For this, after treatment of experimental mice, small tissue pieces are removed from the respective organs and placed in about 1 ml of 1% SSA. The tissue piece in SSA is homogenized using an ultrasonic probe. The further GSH and protein determination is effected according to the procedure described for APC and DC. Comparison with the GSH content of control cells or control tissue indicates the GSH-lowering action of the pharmaceutical substance to be tested.

Each structure is given as a SMILES string. “Also recorded” adds a separate entry of the source. Structures can show the parent of a compound that is named as a salt.

In the case of `COC(=O)/C=C/C(=O)OC` [DMF, dimethyl fumarate], the “intracellular GSH content of DC” value in test [1] is recorded as “depletes the intracellular glutathione level; also recorded: marked decrease”. The “ability of T cells generated in the presence of the substance to induce EAE” value in test [2] is listed as “not able to trigger severe encephalomyelitis”. In addition, the “GSH levels in lymphoid organs and in the brain of immunized mice” value in test [3] is recorded as “lowered”.
For `CCCCS(=N)(=O)CCC(N)C(=O)O` [L-BSO, L-buthionine sulfoximine] the same measures were “depletes the intracellular glutathione level; also recorded: marked decrease”, “scarcely still capable of inducing EAE in vivo” and “lowered”.
In the case of `COC(=O)/C=C/C(=O)[O-].[Ca+]` [MMF, calcium monomethyl fumarate], in test [1], the “intracellular GSH content of DC” value is given as “depletes the intracellular glutathione level; also recorded: marked decrease”. Besides, in test [2], the “ability of T cells generated in the presence of the substance to induce EAE” value is listed as “not able to trigger severe encephalomyelitis”.
